# Test results taken from patent US20250145566A1, “PHENETHYLAMINE DERIVATIVES, COMPOSITIONS, AND METHODS OF USE” (Cybin IRL Limited, priority 2022, published 2025).
# Entries after “also recorded” stand apart in the source; their conditions may differ. Read-outs that look alike come from different tables or passages of the source.
# Assays:
# [1] = Rat liver microsomes (RLM) in vitro metabolism; assay type: in vitro ADME; details: Sprague-Dawley
# Procedure: (§1) Rat Liver Microsomes (RLM). Male Sprague-Dawley rat liver microsomes were purchased from XenoTech. The reaction mixture, minus NADPH, was prepared as described in Table 10. The test compound was added into the reaction mixture at a final concentration of 1 μM. The control compound, testosterone, was run simultaneously with the test compound in a separate reaction. The reaction mixture (without cofactor) was equilibrated in a shaking water bath at 37° C. for 5 minutes. The reaction was initiated by the addition of the cofactor, and the mixture was incubated in a shaking water bath at 37° C. Aliquots (150 μL) were withdrawn at 0, 5, 10, 20, 30, 60, and for some assays at 120 minutes. Test compound and testosterone samples were immediately combined with 150 μL of ice-cold acetonitrile (ACN) containing 0.1% formic acid and internal standard to terminate the reaction. The samples were then mixed and centrifuged to precipitate proteins. All samples were assayed by LC-MS/MS using electrospray ionization. The peak area response ratio (PARR) of analyte to internal standard at each time point was compared to the PARR at time 0 to determine the percent remaining at each time point. Half-lives were calculated using GraphPad software, fitting to a single-phase exponential decay equation.
# (§2) In a different series of reactions using RLM, a 10 mM stock solution of the test compound was prepared in DMSO. From this stock solution, an intermediate stock solution of 1 mM was prepared by diluting the compound in DMSO and from this intermediate stock solution, a working solution of 0.30 mM was prepared by diluting the compound in ACN:Water (50:50) as a cocktail of two compounds (i.e., 30 μL the non-deuterated and the deuterated compound in 40 μL diluent in 100 μL total volume). Following this, a master mix of rat liver microsomes (final concentration 0.5 mg/ml, Xenotech Cat #R1000; Lot #1610290) and 0.1 M potassium phosphate buffer was prepared and pre-incubated for 5 min at 37° C. The test compound mixture was then added to achieve a final test article concentration of 1 μM (for each analog if co-dosed; 0.2% DMSO); verapamil was used as a positive control. Subsequently, 10 mM NADPH prepared in 0.1 M potassium phosphate buffer was added (final concentration 1 mM) to initiate the reaction and samples were incubated at 37° C. for the desired time points (0, 5, 15, 30, 45, 60 min). At each time point, 40 μL of the samples were withdrawn and reactions were stopped using 200 μL chilled ACN containing 0.1% formic acid and internal standard carbamazepine (10 ng/mL). The samples were centrifuged, and the supernatant was analyzed by LC-MS/MS. The percent compound remaining at each time point was calculated with respect to that of the 0 min sample. The data were then analyzed to calculate half-life. Blank samples were prepared using DMSO (without the test compound).
# MAO-A = target: T1, MAO-A (Homo sapiens, UniProt P21397); assay: Recombinant human MAO-A in vitro metabolism; assay type: in vitro ADME; details: for half-life at 1 µM: human, recombinant human MAO-A
# T1 construct: purchased XenoTech (first series); Corning (second series) Corning 456283
# T1 sequence (P21397 1-527): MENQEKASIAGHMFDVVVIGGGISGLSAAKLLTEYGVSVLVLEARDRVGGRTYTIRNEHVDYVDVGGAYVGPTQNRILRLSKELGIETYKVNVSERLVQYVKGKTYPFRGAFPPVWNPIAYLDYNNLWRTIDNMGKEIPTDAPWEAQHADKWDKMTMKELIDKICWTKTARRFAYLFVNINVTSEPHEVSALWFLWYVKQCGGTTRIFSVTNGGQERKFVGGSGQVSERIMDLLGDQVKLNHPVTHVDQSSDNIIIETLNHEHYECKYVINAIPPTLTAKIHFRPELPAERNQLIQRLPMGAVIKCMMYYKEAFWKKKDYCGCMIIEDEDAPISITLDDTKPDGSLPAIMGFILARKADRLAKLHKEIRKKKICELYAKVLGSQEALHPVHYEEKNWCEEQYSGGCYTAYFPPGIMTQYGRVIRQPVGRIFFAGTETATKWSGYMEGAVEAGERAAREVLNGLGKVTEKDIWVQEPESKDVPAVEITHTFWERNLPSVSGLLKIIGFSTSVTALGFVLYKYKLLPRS
# Procedure: Recombinant human MAO-A. hrMAO-A and MAO control were purchased from XenoTech. The reaction mixture was prepared as described in Table 11. The test compound was added into the reaction mixture at a final concentration of 1 μM. The positive control kynuramine (25 μM) was run simultaneously with the test compound in a separate reaction. The reaction mixture (without test compounds or kynuramine) was equilibrated in a shaking water bath at 37° C. for 5 minutes. The reaction was initiated by the addition of the test compound or kynuramine, and the mixture was incubated in a shaking water bath at 37° C. Aliquots (150 μL) of the test compound reaction mixture were withdrawn at 0, 5, 10, 20, 30, 60, and for some assays at 120 minutes. Aliquots (150 μL) of the positive control reaction mixture were withdrawn at 0 and 30 minutes. Test compound and kynuramine samples were immediately combined with 150 μL of ice-cold 100% acetonitrile containing 0.1% formic acid and internal standard (0.2 μM metoprolol) to terminate the reaction. The samples were then mixed and centrifuged to precipitate proteins. All samples were assayed by LC-MS/MS. The peak area response ratio (PARR) of analyte to internal standard at each time point was compared to the PARR at time 0 to determine the percent remaining at each time point. Half-lives were calculated using GraphPad software, fitting to a single-phase exponential decay equation.
# (§3) In a different series of reactions using human MAO-A and MAO-B, a 10 mM stock solution of the test compound was prepared in DMSO. From this stock solution, an intermediate stock solution of 1 mM was prepared by diluting the compound in DMSO and from this intermediate stock solution, a working solution of 0.30 mM was prepared by diluting the compound in ACN:Water (50:50) as cocktail of 2 compounds (30 μL each compound in 40 μL diluent for 100 μL). Following this, a master mix of 0.1 M potassium phosphate buffer and test compound mixture i.e., the non-deuterated and the deuterated analog, were prepared to achieve final drug concentration of 1 μM (0.2% DMSO) for the required number of reactions. The aforementioned master mix was pre-incubated at 37° C. for 5 min. To this master mix, MAO-A (final protein conc. 0.1 mg/mL; Corning Cat #456283; Lot #1173003) or MAO-B (final protein conc. 0.1 mg/mL; Corning Cat #456284; Lot #0318001) was added to initiate the reaction. The samples were then incubated at 37° C. for the desired time points. At each time point (0, 5, 15, 30, 45, 60), 40 μL of the samples were withdrawn and reactions were stopped using 200 μL chilled ACN containing 0.1% formic acid and internal standard Carbamazepine (10 ng/mL). The samples were centrifuged, and the supernatant was analyzed by LC-MS/MS. The percent compound remaining at each time point was calculated with respect to that of the 0 min sample. The data were then analyzed to calculate half-life and intrinsic clearance (CLint). Blank samples were prepared using DMSO (without the test compound).
# 5-HT2A receptor = target: T2, 5-HT2A receptor (Homo sapiens, UniProt P28223); assay: 5-HT2A radioligand ([3H]LSD) competition binding; details: for affinity at 5-HT2A receptors, comparison in words: [3H]LSD competition binding
# T2 construct: host or cells: HEK293 (ATCC CRL-1573), transient, membranes
# T2 sequence (P28223 whole entry): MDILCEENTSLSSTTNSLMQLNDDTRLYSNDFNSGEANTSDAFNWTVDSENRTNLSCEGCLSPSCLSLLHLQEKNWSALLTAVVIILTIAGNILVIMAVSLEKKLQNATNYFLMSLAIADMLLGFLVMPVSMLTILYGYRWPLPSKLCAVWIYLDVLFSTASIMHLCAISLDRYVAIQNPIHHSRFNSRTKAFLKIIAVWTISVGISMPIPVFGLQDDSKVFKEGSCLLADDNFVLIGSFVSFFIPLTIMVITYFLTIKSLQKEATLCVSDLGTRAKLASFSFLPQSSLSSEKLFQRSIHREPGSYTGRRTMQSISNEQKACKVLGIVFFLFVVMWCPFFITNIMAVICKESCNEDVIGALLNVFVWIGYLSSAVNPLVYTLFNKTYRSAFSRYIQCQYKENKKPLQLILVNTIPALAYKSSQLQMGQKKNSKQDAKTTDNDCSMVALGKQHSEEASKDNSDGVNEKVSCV
# Rat Liver Microsomes = assay: Rat liver microsomes (RLM) in vitro metabolism; assay type: in vitro ADME; details: for disappearance in RLM, NADPH dependence: result in words
# Procedure: as §1, §2
# MAO-B = target: T3, MAO-B (Homo sapiens, UniProt P27338); assay: human MAO-B in vitro metabolism; assay type: in vitro ADME; details: human MAO-B enzyme (Corning), test compound 1 μM, read-out: MAO-B t1/2
# T3 construct: purchased Corning 456284
# T3 sequence (P27338 1-520): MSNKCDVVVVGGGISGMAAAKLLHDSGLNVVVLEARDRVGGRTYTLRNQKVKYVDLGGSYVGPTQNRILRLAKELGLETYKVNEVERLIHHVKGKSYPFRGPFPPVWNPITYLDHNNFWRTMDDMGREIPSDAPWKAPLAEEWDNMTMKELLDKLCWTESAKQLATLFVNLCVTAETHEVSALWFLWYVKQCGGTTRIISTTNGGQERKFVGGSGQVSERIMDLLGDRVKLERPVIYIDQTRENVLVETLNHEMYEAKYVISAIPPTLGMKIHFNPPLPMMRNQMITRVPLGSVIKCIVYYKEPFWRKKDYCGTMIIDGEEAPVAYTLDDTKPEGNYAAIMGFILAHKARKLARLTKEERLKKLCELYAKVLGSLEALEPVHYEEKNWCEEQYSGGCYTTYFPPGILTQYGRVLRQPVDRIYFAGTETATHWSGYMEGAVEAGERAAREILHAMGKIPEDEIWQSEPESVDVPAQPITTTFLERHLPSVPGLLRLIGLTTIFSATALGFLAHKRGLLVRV
# Procedure: as §3
# 5-HT2A (h) = target: T4, 5-HT2A (h) (Homo sapiens, UniProt P28223); details: literature, single enantiomers, cited from earlier work; for EC50: read-out: Function 5-HT2A EC50
# T4 construct: expressed in transfected cells; host or cells: HEK-293 cells
# T4 sequence (P28223 whole entry): as the sequence (P28223 whole entry) above
# [2] = rat liver microsomes (Table 18), read-out: RLM t1/2
# [3] = pH 7.4, rat liver microsomes, test compound 1 μM, * = apparent NADPH independent reaction, read-out: RLM t1/2
# [4] = 1 μM test compound, read-out: half-life, MAO-A metabolism
# [5] = human recombinant MAO-A, test compound 1 μM, read-out: MAO-A t1/2
# [6] = rat liver microsomes (Table 17), read-out: RLM t1/2
smiles,measurement,setting,value
[2H]C([2H])([2H])Oc1cc(SC)c(OC([2H])([2H])[2H])cc1C[C@H](C)N [IV-9 (S)],half-life at 1 µM,[1]; [2],6.3 min
same,half-life at 1 µM,"MAO-A; Table 18, read-out: MAO-A t1/2",> 120 min
same,Ki,5-HT2A receptor,56 nM
[2H]C([2H])([2H])Oc1cc(SC)c(OC([2H])([2H])[2H])cc1C[C@@H](C)N [IV-9 (R)],half-life at 1 µM,[1]; [2],16.6 min
same,half-life at 1 µM,"MAO-A; Table 18, read-out: MAO-A t1/2",> 120 min
same,Ki,5-HT2A receptor,26 nM
"COc1cc(SC(F)(F)F)c(OC)cc1CC(C)N (racemic) [IV-1, 1-(2,5-dimethoxy-4-((trifluoromethyl)thio)phenyl)propan-2-amine]","stability / half-life in RLMs, comparison in words",Rat Liver Microsomes; compared with Reference Compound 2,greater stability in RLMs than Reference Compound 2
same,"affinity at 5-HT2A receptors, comparison in words",5-HT2A receptor,affinity at 5-HT2A receptors equal or superior to both enantiomers of Reference Compound 2
"[2H]C1([2H])Oc2cc(CCN)ccc2S1 [II-15, 2-(benzo[d][1,3]oxathiol-6-yl-2,2-d2)ethan-1-amine]",half-life at 1 µM,MAO-B,< 5 min
same,half-life at 1 µM,[1]; [3],< 5 min
same,half-life at 1 µM,MAO-A; [4],≤ 8 min
same,half-life at 1 µM,MAO-A; [5],4.42 min
"COc1cc(C(F)(F)F)c(OC)cc1CCN [Reference Compound 4, 2-(2,5-dimethoxy-4-(trifluoromethyl)phenyl)ethan-1-amine, reference compound]",half-life at 1 µM,[1]; [6],16.6 min
same,Ki,5-HT2A receptor,3.4 nM
COc1cc(SC)c(OC)cc1C[C@@H](C)N [Reference Compound 2 (R)],half-life at 1 µM,[1]; [6],16 min
same,half-life at 1 µM,"MAO-A; Table 18, read-out: MAO-A t1/2",> 120 min
same,Ki,5-HT2A receptor,7 nM
COc1cc(SC)c(OC)cc1C[C@H](C)N [Reference Compound 2 (S)],half-life at 1 µM,[1]; [6],6.34 min
same,half-life at 1 µM,"MAO-A; Table 18, read-out: MAO-A t1/2",> 120 min
same,Ki,5-HT2A receptor,18 nM
"COc1cc(SC)c(OC)cc1CCN [Reference Compound 3, 2-(2,5-dimethoxy-4-(methylthio)phenyl)ethan-1-amine, reference compound]",half-life at 1 µM,[1]; [6],6.09 min
C[C@@H](N)Cc1ccc2c(c1)OCO2 [R-MDA],Function 5-HT2A EMAX,5-HT2A (h),EMAX = 95%
same,EC50,5-HT2A (h),5600 nM
C[C@H](N)Cc1ccc2c(c1)OCO2 [S-MDA],Function 5-HT2A EMAX,5-HT2A (h),EMAX = 89%
same,EC50,5-HT2A (h),18200 nM
"COc1cc(CCN)cc(OC)c1SC(F)(F)F [III-5, 2-(3,5-dimethoxy-4-((trifluoromethyl)thio)phenyl)ethan-1-amine]",half-life at 1 µM,"[1]; rat, rat liver microsomes, 1 μM test compound, read-out: half-life in the presence of rat liver microsome",> 120 min
same,RLM t1/2,Rat Liver Microsomes; rat liver microsomes (Table 17),>120 min
same,Ki,5-HT2A receptor,1.6 nM
same,"affinity at 5-HT2A receptors, comparison in words",5-HT2A receptor,"superior affinity at 5-HT2A receptors compared to Reference Compound 1; also recorded: affinity equal to or better than classic 2,4,5-substituted 5-HT2A agonists, such as Reference Compounds 2-4"
same,Ki,"5-HT2A receptor; read-out: 5HT2A Ki at the low-affinity inactive state, [3H]LSD, two-site fit",676 nM
"[2H]C1([2H])Oc2cc(CC(C)N)ccc2S1 (stereo not shown) [II-17, 1-(benzo[d][1,3]oxathiol-6-yl-2,2-d2)propan-2-amine]",half-life at 1 µM,MAO-B,892 min
same,half-life at 1 µM,[1]; [3],12.6 min
same,half-life at 1 µM,MAO-A; [5],> 120 min
same,stability in the presence of MAO-A,MAO-A; result in words,stable
COc1cc(SC(F)(F)F)c(OC)cc1CC(C)N (racemic) [IV-1 (racemic)],half-life at 1 µM,[1]; [2],40.7 min
same,Ki,"5-HT2A receptor; agonist radioligand: [3H]LSD (Table 18), read-out: 5HT2A Ki",7 nM
"[2H]C1([2H])Oc2ccc(CCN)cc2O1 [II-11, 2-(benzo[d][1,3]dioxol-5-yl-2,2-d2)ethan-1-amine]",half-life at 1 µM,MAO-B,< 5 min
same,half-life at 1 µM,[1]; [3],< 5 min
same,"disappearance in RLM, NADPH dependence",Rat Liver Microsomes,NADPH-independent
same,half-life at 1 µM,MAO-A; [4],≤ 8 min
same,half-life at 1 µM,MAO-A; [5],7.97 min
"NCCc1ccc2c(c1)OCO2 [Reference Compound 5, 3,4-Methylenedioxyphenethylamine, reference compound]",half-life at 1 µM,MAO-B,7.91 min
same,half-life at 1 µM,[1]; [3],< 5 min
same,"disappearance in RLM, NADPH dependence",Rat Liver Microsomes,NADPH-independent
same,half-life at 1 µM,MAO-A; [4],≤ 8 min
same,half-life at 1 µM,MAO-A; [5],8.34 min
